From ChEMBL document CHEMBL5729245, “Dioxinoquinoline compounds, preparation method and uses thereof” (2022)
pIC50: −log10 of the molar value.

Legend:
[1] = target: Vascular endothelial growth factor receptor 2 (Homo sapiens, UniProt P35968); assay: Assay of Small Molecular Compounds for Inhibiting the Activity of VEGFR-2 Kinase: The assay is based on the LANCE TR-FRET technology of Perkin Elmer Inc., and the assay method is as follows:1. Dilution of compounds: a total of 11 concentrations were obtained using a 3-fold gradient dilution from the highest concentration of 2500 nM (the maximum final concentration of the drug used in this assay was 2500 nM, and the minimum final concentration was 0.042 nM).2. 2.5 μL of the gradient-diluted compounds were taken with a transfer pipette to a 384-well plate.3. Addition of enzyme: 5 μL of 2× VEGFR-2 kinase solution (concentration was 0.5 nM) was taken with a transfer pipette to the corresponding reaction well of the 384-well plate, mixed well and pre-reacted at room temperature for 30 minutes.4. 2.5 μL 4× Ultra ULight™-JAK-1 (Tyr1023) Peptide (concentration was 200 nM)/ATP (concentration was 40 μM) mixture was taken with a transfer pipette to the corresponding reaction well of the 384-well plate.5. Negative control: 2.5 μL/well 4× substrate/ATP mixture and 7.5 μL 1× Kinase Assay Buffer were added to the wells of the 384-well plate.6. Positive control: 2.5 μL/well 4× substrate/ATP mixture, 2.5 μL/well 1× Kinase Assay Buffer containing 16% DMSO, and 5 μL/well 2× VEGFR-2 kinase solution were added to the 384-well plate. The final concentration of DMSO in the reaction system was 4%.7. The mixture was mixed well and then centrifuged and reacted at room temperature in dark for 60 min.8. Termination of the enzymatic reaction: 5 μL of 4× stop solution was taken with a transfer pipette to the wells of the 384-well plate, mixed and then centrifuged, and reacted at room temperature for 5 min.9. Development of the reaction: 5 μL of 4× detection solution was taken with a transfer pipette to the wells of the 384-well plate for color development, and the mixture was mixed and then centrifuged and reacted at room temperature for 60 min.10. The 384-well plate was placed into the Envision plate reader and the signal was detected using the appropriate program.11. Analysis and processing of the raw data:The drug concentrations and the corresponding inhibition rates were input into GraphPad Prism5 for calculation, and the inhibition rate of the compounds were calculated as follows: inhibition rate (%)=(reading of positive well−reading of experimental well)/(reading of positive control well−reading of negative control well)×100%. Processing with GraphPad Prism5 software yielded the corresponding IC50 values (the concentration of the compound at which 50% of the highest inhibition of the enzyme is achieved).
Sequence of Vascular endothelial growth factor receptor 2 (P35968 whole entry): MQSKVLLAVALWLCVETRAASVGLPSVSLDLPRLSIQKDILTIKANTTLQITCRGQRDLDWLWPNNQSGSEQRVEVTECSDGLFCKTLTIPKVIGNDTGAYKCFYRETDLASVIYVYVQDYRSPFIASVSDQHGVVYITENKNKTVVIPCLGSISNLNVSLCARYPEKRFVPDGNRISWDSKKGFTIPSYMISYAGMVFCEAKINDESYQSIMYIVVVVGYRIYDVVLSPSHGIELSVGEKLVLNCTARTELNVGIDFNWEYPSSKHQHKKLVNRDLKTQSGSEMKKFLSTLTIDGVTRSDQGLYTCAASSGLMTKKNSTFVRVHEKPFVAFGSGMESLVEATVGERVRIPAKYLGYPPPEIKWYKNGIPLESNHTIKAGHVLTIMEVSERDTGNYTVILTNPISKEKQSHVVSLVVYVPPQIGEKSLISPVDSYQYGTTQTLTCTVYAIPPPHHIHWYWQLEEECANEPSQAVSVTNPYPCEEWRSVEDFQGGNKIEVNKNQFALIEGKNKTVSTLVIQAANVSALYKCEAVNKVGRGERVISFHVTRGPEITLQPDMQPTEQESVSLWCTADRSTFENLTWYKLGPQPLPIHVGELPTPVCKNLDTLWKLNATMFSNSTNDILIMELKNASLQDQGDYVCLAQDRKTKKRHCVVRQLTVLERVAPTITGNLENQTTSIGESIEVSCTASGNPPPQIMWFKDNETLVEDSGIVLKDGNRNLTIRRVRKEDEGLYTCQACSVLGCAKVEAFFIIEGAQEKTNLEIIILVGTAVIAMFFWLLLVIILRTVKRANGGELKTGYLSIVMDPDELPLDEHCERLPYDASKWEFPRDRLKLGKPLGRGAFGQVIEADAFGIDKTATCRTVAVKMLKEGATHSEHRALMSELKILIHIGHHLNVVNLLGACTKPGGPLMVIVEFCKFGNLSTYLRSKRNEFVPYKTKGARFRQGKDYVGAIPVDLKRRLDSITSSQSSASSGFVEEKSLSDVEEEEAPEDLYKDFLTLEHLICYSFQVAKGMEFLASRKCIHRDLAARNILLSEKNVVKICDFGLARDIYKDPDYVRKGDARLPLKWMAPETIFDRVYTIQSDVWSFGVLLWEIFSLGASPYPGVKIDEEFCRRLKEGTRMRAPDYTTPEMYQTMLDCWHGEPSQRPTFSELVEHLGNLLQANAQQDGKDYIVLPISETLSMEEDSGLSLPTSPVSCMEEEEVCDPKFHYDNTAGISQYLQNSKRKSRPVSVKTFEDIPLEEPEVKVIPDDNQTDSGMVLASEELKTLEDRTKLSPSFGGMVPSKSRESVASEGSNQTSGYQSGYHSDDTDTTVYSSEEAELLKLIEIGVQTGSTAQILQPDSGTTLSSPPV

[2] = target: Hepatocyte growth factor receptor (Homo sapiens, UniProt P08581); assay: Assay of Small Molecular Compounds for Inhibiting the Activity of c-MET Kinase: The assay is based on the LANCE TR-FRET technology of Perkin Elmer Inc., and the assay method is as follows:1. Dilution of compounds: a total of 11 concentrations were obtained using a 3-fold gradient dilution from the highest concentration of 2500 nM (the maximum final concentration of the drug used in this assay was 2500 nM, and the minimum final concentration was 0.042 nM).2. 2.5 μL of the gradient-diluted compounds were taken with a transfer pipette to a 384-well plate.3. Addition of enzyme: 5 μL of 2× c-MET kinase solution (concentration was 2 nM) was taken with a transfer pipette to the corresponding reaction well of the 384-well plate, mixed well and pre-reacted at room temperature for 5 minutes.4. 2.5 μL 4× Ultra ULight™-JAK-1 (Tyr1023) Peptide (concentration was 400 nM)/ATP (concentration was 40 μM) mixture was taken with a transfer pipette to the corresponding reaction well of the 384-well plate.5. Negative control: 2.5 μL/well 4× substrate/ATP mixture and 7.5 μL 1× Kinase Assay Buffer were added to the wells of the 384-well plate.6. Positive control: 2.5 μL/well 4× substrate/ATP mixture, 2.5 μL/well 1× Kinase Assay Buffer containing 16% DMSO, and 5 µL/well 2× c-MET kinase solution were added to the 384-well plate. The final concentration of DMSO in the reaction system was 4%.7. The mixture was mixed well and then centrifuged and reacted at room temperature in dark for 60 min.8. Termination of the enzymatic reaction: 5 μL of 4× stop solution was taken with a transfer pipette to the wells of the 384-well plate, mixed and then centrifuged, and reacted at room temperature for 5 min.9. Development of the reaction: 5 μL of 4× detection solution was taken with a transfer pipette to the wells of the 384-well plate for color development, and the mixture was mixed and then centrifuged and reacted at room temperature for 60 min.10. The 384-well plate was placed into the Envision plate reader and the signal was detected using the appropriate program.11. Analysis and processing of the raw data:12. The drug concentrations and the corresponding inhibition rates were input into GraphPad Prism5 for calculation, and the inhibition rate of the compounds were calculated as follows: inhibition rate (%)=(reading of positive well−reading of experimental well)/(reading of positive control well−reading of negative control well)×100%. Processing with GraphPad Prism5 software yielded the corresponding IC50 values (the concentration of the compound at which 50% of the highest inhibition of the enzyme is achieved).
Sequence of Hepatocyte growth factor receptor (P08581 whole entry): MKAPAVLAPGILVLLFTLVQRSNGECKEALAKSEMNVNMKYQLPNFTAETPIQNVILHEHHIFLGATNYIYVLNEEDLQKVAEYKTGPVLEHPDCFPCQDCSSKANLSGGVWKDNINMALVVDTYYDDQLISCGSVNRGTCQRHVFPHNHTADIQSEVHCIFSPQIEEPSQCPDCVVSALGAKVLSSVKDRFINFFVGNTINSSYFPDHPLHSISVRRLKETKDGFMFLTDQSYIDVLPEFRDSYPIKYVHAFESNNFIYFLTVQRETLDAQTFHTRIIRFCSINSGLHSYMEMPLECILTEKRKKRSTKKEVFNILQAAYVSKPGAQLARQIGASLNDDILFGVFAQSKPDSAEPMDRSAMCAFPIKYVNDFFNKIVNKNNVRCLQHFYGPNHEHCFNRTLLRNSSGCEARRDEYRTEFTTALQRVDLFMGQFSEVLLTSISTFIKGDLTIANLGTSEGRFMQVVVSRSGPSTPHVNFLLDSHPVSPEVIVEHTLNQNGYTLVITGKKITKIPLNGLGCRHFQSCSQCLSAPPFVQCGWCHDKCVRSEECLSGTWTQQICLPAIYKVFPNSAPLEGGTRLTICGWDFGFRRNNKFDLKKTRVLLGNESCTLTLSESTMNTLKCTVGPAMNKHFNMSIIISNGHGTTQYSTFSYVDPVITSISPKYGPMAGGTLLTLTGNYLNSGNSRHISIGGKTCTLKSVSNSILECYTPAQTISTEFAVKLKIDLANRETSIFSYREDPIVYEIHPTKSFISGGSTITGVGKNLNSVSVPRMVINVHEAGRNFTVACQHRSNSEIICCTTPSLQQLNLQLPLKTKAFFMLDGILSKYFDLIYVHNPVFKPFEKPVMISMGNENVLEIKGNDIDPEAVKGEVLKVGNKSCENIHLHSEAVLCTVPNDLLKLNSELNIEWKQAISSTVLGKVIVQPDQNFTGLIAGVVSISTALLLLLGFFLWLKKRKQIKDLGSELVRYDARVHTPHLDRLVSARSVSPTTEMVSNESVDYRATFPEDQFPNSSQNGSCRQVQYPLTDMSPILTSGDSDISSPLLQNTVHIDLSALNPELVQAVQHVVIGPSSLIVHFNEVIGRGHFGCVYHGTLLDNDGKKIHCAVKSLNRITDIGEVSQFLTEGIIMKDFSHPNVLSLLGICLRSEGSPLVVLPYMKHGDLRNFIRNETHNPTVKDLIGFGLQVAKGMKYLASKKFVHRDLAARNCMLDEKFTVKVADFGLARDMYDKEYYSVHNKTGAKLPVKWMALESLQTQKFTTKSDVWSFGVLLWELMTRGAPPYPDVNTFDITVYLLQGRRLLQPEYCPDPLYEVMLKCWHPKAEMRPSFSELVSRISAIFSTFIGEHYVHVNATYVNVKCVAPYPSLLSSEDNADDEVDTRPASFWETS

Row | Compound | pIC50 [1] | pIC50 [2]
1 | CN(C)CCCOc1cc2nccc(Oc3ccc(NC(=O)C4(C(=O)Nc5ccc(F)cc5)CC4)cc3F)c2c2c1OCCO2 | > 7.30 | > 7.30
2 | O=C(Nc1ccc(F)cc1)C1(C(=O)Nc2ccc(Oc3ccnc4cc(OCCCN5CCCC5)c5c(c34)OCCO5)c(F)c2)CC1 | > 7.30 | > 7.30
3 | O=C(Nc1ccc(F)cc1)C1(C(=O)Nc2ccc(Oc3ccnc4cc(OCCCO)c5c(c34)OCCO5)c(F)c2)CC1 | > 7.30 | > 7.30
4 | O=C(Nc1ccc(F)cc1)C1(C(=O)Nc2ccc(Oc3ccnc4cc(OC5CCOC5)c5c(c34)OCCO5)c(F)c2)CC1 (stereo unspecified) | > 7.30 | > 7.30
5 | O=C(Nc1ccc(F)cc1)C1(C(=O)Nc2ccc(Oc3ccnc4cc(OCCCN5CCOCC5)c5c(c34)OCCO5)c(Cl)c2)CC1 |  | > 7.30
6 | CC1(N)CCN(CCCOc2cc3nccc(Oc4ccc(NC(=O)C5(C(=O)Nc6ccc(F)cc6)CC5)cc4F)c3c3c2OCCO3)CC1 | > 7.30 | > 7.30
7 | O=C(Nc1ccc(F)cc1)C1(C(=O)Nc2ccc(Oc3ccnc4cc(OCCCN5CCS(=O)(=O)CC5)c5c(c34)OCCO5)c(F)c2)CC1 | > 7.30 | > 7.30
8 | CN1CCN(CCCOc2cc3nccc(Oc4ccc(NC(=O)C5(C(=O)Nc6ccc(F)cc6)CC5)cc4F)c3c3c2OCCO3)CC1 | > 7.30 | > 7.30
9 | NC1(COc2cc3nccc(Oc4ccc(NC(=O)C5(C(=O)Nc6ccc(F)cc6)CC5)cc4F)c3c3c2OCCO3)CC1 | > 7.30 | > 7.30
10 | N#CCCCOc1cc2nccc(Oc3ccc(NC(=O)C4(C(=O)Nc5ccc(F)cc5)CC4)cc3F)c2c2c1OCCO2 | > 7.30 | > 7.30
11 | O=C(Nc1ccc(F)cc1)C1(C(=O)Nc2ccc(Oc3ccnc4cc(OCCCN5CCOCC5)c5c(c34)OCCO5)cc2Cl)CC1 |  | > 7.30
12 | CN(C)CCCCCCOc1cc2nccc(Oc3ccc(NC(=O)C4(C(=O)Nc5ccc(F)cc5)CC4)cc3F)c2c2c1OCCO2 | > 7.30 | > 7.30
13 | COCCN(C)CCCOc1cc2nccc(Oc3ccc(NC(=O)C4(C(=O)Nc5ccc(F)cc5)CC4)cc3F)c2c2c1OCCO2 | > 7.30 | > 7.30
14 | CC1(C)CCN(CCCOc2cc3nccc(Oc4ccc(NC(=O)C5(C(=O)Nc6ccc(F)cc6)CC5)cc4F)c3c3c2OCCO3)CC1 | > 7.30 | > 7.30
15 | O=C(Nc1ccc(F)cc1)C1(C(=O)Nc2ccc(Oc3ccnc4cc(OCCCN5CCCCC5)c5c(c34)OCCO5)c(F)c2)CC1 | > 7.30 | > 7.30
16 | O=C(Nc1ccc(F)cc1)C1(C(=O)Nc2ccc(Oc3ccnc4cc(OC5CCOCC5)c5c(c34)OCCO5)c(F)c2)CC1 |  | > 7.30
17 | O=C(Nc1ccc(F)cc1)C1(C(=O)Nc2ccc(Oc3ccnc4cc(OCCCN5CCOCC5)c5c(c34)OCCO5)c(F)c2)CC1 | > 7.30 | > 7.30
18 | CN(CCCOc1cc2nccc(Oc3ccc(NC(=O)C4(C(=O)Nc5ccc(F)cc5)CC4)cc3F)c2c2c1OCCO2)C1CCC1 | > 7.30 | > 7.30
19 | CC1(O)CCN(CCCOc2cc3nccc(Oc4ccc(NC(=O)C5(C(=O)Nc6ccc(F)cc6)CC5)cc4F)c3c3c2OCCO3)CC1 | > 7.30 | > 7.30
20 | CC(C)(O)COc1cc2nccc(Oc3ccc(NC(=O)C4(C(=O)Nc5ccc(F)cc5)CC4)cc3F)c2c2c1OCCO2 | > 7.30 | > 7.30
21 | O=C(Nc1ccc(F)cc1)C1(C(=O)Nc2ccc(Oc3ccnc4cc(OC5COC5)c5c(c34)OCCO5)c(F)c2)CC1 | > 7.30 | > 7.30
22 | O=C(Nc1ccc(F)cc1)C1(C(=O)Nc2ccc(Oc3ccnc4cc(OCCCN5CCOCC5)c5c(c34)OCCO5)cc2)CC1 | > 7.30 | > 7.30

Now from value to compound:

Row | pIC50 [1] | pIC50 [2] | Compound
23 |  | > 7.30 | N#CCOc1cc2nccc(Oc3ccc(NC(=O)C4(C(=O)Nc5ccc(F)cc5)CC4)cc3F)c2c2c1OCCO2
24 |  | > 7.30 | CC(C)Oc1cc2nccc(Oc3ccc(NC(=O)C4(C(=O)Nc5ccc(F)cc5)CC4)cc3F)c2c2c1OCCO2
25 | > 7.30 | > 7.30 | CCOc1cc2nccc(Oc3ccc(NC(=O)C4(C(=O)Nc5ccc(F)cc5)CC4)cc3F)c2c2c1OCCO2
26 | > 7.30 | > 7.30 | COc1cc2nccc(Oc3ccc(NC(=O)C4(C(=O)Nc5ccc(F)cc5)CC4)cc3F)c2c2c1OCCO2
27 | > 7.30 | > 7.30 | COCCCOc1cc2nccc(Oc3ccc(NC(=O)C4(C(=O)Nc5ccc(F)cc5)CC4)cc3F)c2c2c1OCCO2
28 | < 5.30 | > 7.30 | COc1cc2nccc(Oc3cc(Cl)c(NC(=O)C4(C(=O)Nc5ccc(F)cc5)CC4)cc3F)c2c2c1OCCO2
29 | > 7.30 | > 7.30 | O=C(Nc1ccc(F)cc1)C1(C(=O)Nc2ccc(Oc3ccnc4cc(OCCO)c5c(c34)OCCO5)c(F)c2)CC1
30 | > 7.30 | > 7.30 | O=C(Nc1ccc(F)cc1)C1(C(=O)Nc2ccc(Oc3ccnc4cc(OCCCN5CCOCC5)c5c(c34)OCCO5)cc2F)CC1
31 | > 7.30 | > 7.30 | COc1cc2nccc(Oc3ccc(NC(=O)C4(C(=O)Nc5ccc(F)cc5)CC4)cc3)c2c2c1OCCO2
32 | > 7.30 | > 7.30 | COc1cc2nccc(Oc3ccc(NC(=O)C4(C(=O)Nc5ccc(F)cc5)CC4)c(F)c3)c2c2c1OCCO2
33 | > 7.30 | > 7.30 | COCCOc1cc2nccc(Oc3ccc(NC(=O)C4(C(=O)Nc5ccc(F)cc5)CC4)cc3F)c2c2c1OCCO2
